Measurements reported in patent US8007800B2, “Methods for treating bone cancer pain by administering a nerve growth factor antagonist antibody” (Pfizer Inc., priority 2004, dated 2011).

Legend:
[1] = molecular target: human NGF (Homo sapiens, UniProt P01138); assay: Binding affinity of Fab fragments to NGF (BIAcore surface plasmon resonance); conditions: measured using Fab fragments
Experimental: The binding affinity of an anti-NGF antibody to NGF (such as hNGF) can be about 0.10 to about 1.0 nM, about 0.10 nM to about 0.80 nM, about 0.15 to about 0.75 nM and about 0.18 to about 0.72 nM. […] In some embodiment, the binding affinity is about 10 nM. In other embodiments, the binding affinity is less than about 10 nM. […] As is well known in the art, binding affinity can be expressed as KD, or dissociation constant, and an increased binding affinity corresponds to a decreased KD.
One way of determining binding affinity of antibodies to NGF is by measuring binding affinity of monofunctional Fab fragments of the antibody. To obtain monofunctional Fab fragments, an antibody (for example, IgG) can be cleaved with papain or expressed recombinantly. The affinity of an anti-NGF Fab fragment of an antibody can be determined by surface plasmon resonance (BIAcore3000™ surface plasmon resonance (SPR) system, BIAcore, INC, Piscaway N.J.). CM5 chips can be activated with N-ethyl-N′-(3-dimethylaminopropyl)-carbodiinide hydrochloride (EDC) and N-hydroxysuccinimide (NHS) according to the supplier's instructions. […] The concentrations of the Fab proteins are determined by ELISA and/or SDS-PAGE electrophoresis using a Fab of known concentration (as determined by amino acid analysis) as a standard. […] Equilibrium dissociation constant (KD) values are calculated as koff/kon. […]

[2] = system: C3H/HeJ mice injected with NCTC 2472 osteolytic murine sarcoma cells into the femur; assay: Example 2: murine sarcoma bone cancer pain model, ongoing and palpation-evoked pain behaviors; format: in vivo, mouse; conditions: days 10 and 14, vs sarcoma+vehicle

human NGF, sequence (P01138 122-241): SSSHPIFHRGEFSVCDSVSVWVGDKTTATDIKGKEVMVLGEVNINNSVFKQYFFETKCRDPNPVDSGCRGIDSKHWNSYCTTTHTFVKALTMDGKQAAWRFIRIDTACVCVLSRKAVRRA

Compound | Kd [1] [nM] | ongoing and movement-evoked guarding behaviors ([2]; morphine sulfate 10 mg/kg i.p. 15 min prior to testing) | ongoing and movement-evoked guarding behaviors ([2]; morphine sulfate 30 mg/kg i.p. 15 min prior to testing)
antibody E3: humanized mouse anti-NGF monoclonal antibody; human IgG2a constant region A330P331 to S330S331, kappa light chain, variable regions SEQ ID NO:1 and 2 | ~0.07 |  | 
CN1CC[C@]23c4c5ccc(O)c4O[C@H]2[C@@H](O)C=C[C@H]3[C@H]1C5.O=S(=O)(O)O [morphine sulfate] |  | significantly reduced | significantly reduced
